According to patent US20240057617A1, “COMPOSITIONS AND METHODS FOR MEALYBUG MONITORING AND CONTROL” (The State of Israel, Ministry of Agriculture & Rural …, priority 2019, published 2024):

Assays:
N. viridis males [1] = test: Flight bioassay with baited sticky traps in rearing room; assay type: in vivo, Nipaecoccus viridis; details: for average males caught on sticky trap: 20 μg in polyethylene vial, 12 days, mean ±SE, N=12; for statistical comparison of male catches per day with control: Kruskal-Wallis P=0.001, Conover's test at α=0.05
Protocol: Insects. N. viridis populations were collected from two citrus groves in Israel, in West Negev and the Galilee areas. These populations were used to establish a colony on sprouted potatoes (Solanum tuberosum) in a rearing room at 25±1° C., 50-60% relative humidity, and under a photoperiod of 14L:10D. First stage larval instars were separated to a different cage and emerged adult males were removed manually each day (Levi-Zada et al. 2014). Adult females, 10 days after the last molt, were transferred to clean potato sprouts for further use in experiments.
Flight bioassays of males compared the attractiveness of the female produced components in a 3×3 m^2 rearing room in which a colony of mealybugs, in several open plastic containers, was placed on the floor in the center. Traps consisting of white cards (18×10 cm^2) covered with 80% polyisobutene adhesive (Rimifoot, Rimi, Petah Tikva, Israel) were baited with 0.5 ml 5×8 mm ID×OD polyethylene vials (Just Plastic, Norfolk, UK) containing either 20 μg of γ-necrodol (I), γ-necrodyl isobutyrate (II), their mixture (I+II, 20 μg each), each in 200 μl n-hexane solution, or only 200 μl n-hexane control. The baited traps were hung at 1.2 m height, separated by 2.8 m and were rotated in position every day for 12 days. The Kruskal-Wallis rank sum test and post-hoc Conover tests above were used to compare catches on treatments for statistical differences.

N. viridis males [2] = test: Petri dish choice bioassay (arrestment of males on impregnated paper disks); assay type: in vivo, Nipaecoccus viridis; details: for mean number of males attracted to bait (arrested on paper disk): 10 ng on filter paper disk, 24 males released, counted after 1 h, mean ±SE, n=6
Protocol: Insects. N. viridis populations were collected from two citrus groves in Israel, in West Negev and the […] areas. These populations were used to establish a colony on sprouted potatoes (Solanum tuberosum) in a rearing room at 25±1° C., 50-60% relative humidity, and under a photoperiod of […]:10D. First stage larval instars were separated to a different cage and emerged adult males were removed manually each day (Levi-Zada et al. 2014). Adult females, 10 days after the last molt, were transferred to clean potato sprouts for further use in experiments. Behavioral Bioassays. The two putative female sex pheromone components and their 1:1 mixture were tested in 14-cm diameter glass Petri dish arenas (Mendel et al. 2012). Four filter paper disks (5-mm diameter, Whatman No. 1) impregnated with 1 μl n-hexane solutions containing 10 ng γ-necrodol (I), 10 ng γ-necrodyl isobutyrate (II), 5 ng of each I+II combined, and solvent only (control) were equally spaced in random order on the periphery of the arena in each test (n=6). Twenty-four males were released in each of the tests at the center of a Petri dish and after 1 h the number of males found on each paper disk was recorded. […] If a significant difference was found then post-hoc pairwise Conover tests with Bonferroni correction for multiple comparisons was performed (same PMCMR package).

| Molecule | average males caught on sticky trap (N. viridis males [1]) | statistical comparison of male catches per day with control (N. viridis males [1]) | mean number of males attracted to bait (arrested on paper disk) (N. viridis males [2]) | statistical comparison of male arrestment with control (N. viridis males [2]; Kruskal-Wallis, post-hoc Conover tests with Bonferroni correction, all P<0.0001) |
| --- | --- | --- | --- | --- |
| CC1=C(C)C(C)(C)C(CO)C1 (stereo not shown) [compound I, 2,2,3,4-tetramethyl-3-cyclopentene-1-methanol] | 139±41 males per day | not significantly different | 0.5±0.2 males | – |
| γ-necrodyl isobutyrate [compound II] | 654±178 males per day | significantly more | 3.16±0.7 males | significantly different from I or control |
